Patent publication US9365499B2, “9-aminomethyl substituted tetracycline compounds” (KBP Biosciences Co., Ltd., priority 2011, dated 2016)
Converted amounts (≈) assume the structure as drawn.

Legend:
[1] = in vivo pharmacokinetics experiment in rats (Test Example 2); conditions: male, SD, rat, plasma
Protocol: Test animals: male SD rats, weighing 230-250 g, purchased from Shanghai SLAC Laboratory Animals Co., Ltd., Certificate of Conformity: SCXK (SH) 2007-0005 22045; Six rats were tested for each compound.
Test substances: Compound 2 of the present invention, prepared in accordance with the method of Example 3; dissolved in physiological saline.
Internal standard substance: The acetonitrile solution of 50 ng/ml KBP-5747 was used as an internal standard solution in the measurement of Compound 2.
Administration of Compound 2 of the present invention: intravenous bolus injection (iv), dose: 5 mg/kg, administrating volume: 5 mL/kg; gavage (po), dose: 5 mg/kg, administrating volume: 5 mL/kg. Prior to administration help but water fasting for 12 hours, 4 hours after administration to food.
iv blood sampling time point: denoted by 0 min before administration, 5 min, 15 min, 30 min, 1 h, 2 h, 4 h, 8 h, 24 h, 30 h, 48 h after administration
po blood sampling time point: denoted by 0 min before administration, 5 min, 15 min, 30 min, 1 h, 2 h, 4 h, 8 h, 24 h, 30 h, 48 h after administration
Each time point to take around 150 μl whole blood, centrifugated at 2000×g at 4° C. for 5 minutes in a low-temperature high-speed centrifuge to separate plasma, the resulting plasma frozen was at −70° C. in a refrigerator.
Plasma samples analysis: 30 μl of plasma was taken and added 100 μl of internal standard solution, subjected to vortex at 14,000 rev/min for 5 minutes, then to centrifugation at 12,000 rpm/min for 5 minutes. The supernatant was taken and analyzed using LC-MS/MS.
Formula Absolute Bioavailability F%=[AUC]INF (po)×Dose(iv)/[AUC]INF (iv)×Dose(po)

Escherichia coli = assay: antibacterial activity in vitro, agar dilution method; type: cell-based; conditions: Table 2
From the text: (§1) The antibacterial spectrum and in vitro antibacterial activity of the compound of the present invention
(§2) Experimental method: the agar dilution method, with reference to Clinical And Laboratory Standards Institute. Methods for Dilution Antimicrobial Susceptibility Tests for Bacteria That Grow Aerobically; Approved Standard-Seventh Edition. CLSI Document M7-A7. Vol 26, no. 2, Wayne, Pa.: Clinical and Laboratory Standards Institute, 2006.
(§3) Wherein MIC represents the minimum inhibitory concentration, MIC90 represents the 90% inhibitory concentration.

[2] = tested on: Methicillin-resistant Staphycoccus epidermidis (MRSE); assay: as above; type: cell-based; conditions: Staphylococcus epidermidis, Table 2
From the text: as §1, §2, §3

Acinetobacter baumannii = assay: as above; type: cell-based; conditions: Table 2, agar dilution, read-out: antibacterial activity MIC, Acinetbacter baumannii
From the text: as §1, §2, §3

[3] = tested on: Methicillin-resistant Staphylococcus aureus (MRSA); assay: as above; type: cell-based; conditions: Table 2, agar dilution
From the text: as §1, §2, §3

Streptococcus pyogenes = assay: as above; type: cell-based; conditions: Table 2
From the text: as §1, §2, §3

Klebsiella pneumoniae = assay: as above; type: cell-based; conditions: Table 2
From the text: as §1, §2, §3

CN(C)c1cc(CNC2CC(F)(F)C2)c(O)c2c1C[C@H]1C[C@H]3[C@H](N(C)C)C(O)=C(C(N)=O)C(=O)[C@@]3(O)C(O)=C1C2=O [Compound 2, (4S,4aS,5aR,12aS)-9-((3,3-difluorocyclobutylamino)methyl)-4,7-bis(dimethylamino)-3,10,12,12a-tetrahydroxy-1,1′-dioxo-1,4,4a,5,5a,6,11,12a-octahydrotetracene-2-carboxamide]
AUC(0-inf) ([1]; iv, 5 mg/kg): 2290 ng·h/mL
clearance ([1]; iv, 5 mg/kg): 37.2 mL/min/kg
half-life ([1]; iv, 5 mg/kg): 4.07 h
Vd ([1]; iv, 5 mg/kg, read-out: Vss): 5.12 L/kg
bioavailability ([1]; po 5 mg/kg vs iv 5 mg/kg, read-out: F % (absolute bioavailability)): 33.9%
AUC(0-inf) ([1]; po (gavage), 5 mg/kg): 777 ng·h/mL
Cmax ([1]; po (gavage), 5 mg/kg): 251 ng/mL
Tmax ([1]; po (gavage), 5 mg/kg): 1 h
half-life ([1]; po (gavage), 5 mg/kg): 2.32 h
MIC (Escherichia coli): 1 µg/mL (≈ 1.73 µM)
MIC [2]: 0.25 µg/mL (≈ 0.434 µM)
MIC (Acinetobacter baumannii): 0.5 µg/mL (≈ 0.867 µM)
MIC [3]: 0.5 µg/mL (≈ 0.867 µM)
MIC (Streptococcus pyogenes): 0.125 µg/mL (≈ 0.217 µM)
MIC (Klebsiella pneumoniae): 4 µg/mL (≈ 6.94 µM)

CN(C)c1cc(CNC2CC3(CC3)C2)c(O)c2c1C[C@H]1C[C@H]3[C@H](N(C)C)C(O)=C(C(N)=O)C(=O)[C@@]3(O)C(O)=C1C2=O [Compound 3, (4S,4aS,5aR,12aS)-9-((spiro[2.3]hexan-5-ylamino)methyl)-4,7-bis(dimethylamino)-3,10,12,12a-tetrahydroxy-1,1′-dioxo-1,4,4a,5,5a,6,11,12a-octahydrotetracene-2-carboxamide]
MIC (Escherichia coli): 1 µg/mL (≈ 1.76 µM)
MIC [2]: 0.5 µg/mL (≈ 0.882 µM)
MIC (Acinetobacter baumannii): 4 µg/mL (≈ 7.06 µM)
MIC [3]: 0.5 µg/mL (≈ 0.882 µM)
MIC (Streptococcus pyogenes): 0.06 µg/mL (≈ 0.106 µM)
MIC (Klebsiella pneumoniae): 2 µg/mL (≈ 3.53 µM)
